Patent US20250051578A1, “RHODAMINE-METHYLENE BLUE DERIVATIVE FLUORESCENT PROBE AND PREPARATION METHOD AND APPLICATION THEREOF” (Henan Polytechnic University, priority 2023, published 2025)
“Also recorded” adds a separate entry of the source.

System: Raw246.7 cells
Assay: Dual-channel confocal fluorescence imaging of ClO^− and ATP in cells
Assay type: cell-based
Settings: for fluorescence of the NIR channel (ClO^− level) versus control group / fluorescence of the yellow channel (ATP level) versus control group: Raw246.7 cells incubated with the substance 1 h, then fluorescent probe 1×10^−5 mol/L 30 min
Description: After Raw246.7 cells are incubated with relevant steps, fluorescence imaging is performed by an Olympus FV500-IX70 laser confocal microscope, and results of the fluorescence imaging are shown in FIG. 6. Control group (Control): the Raw246.7 cells are incubated with the fluorescent probe (1×10^−5 mol/L) for 30 minutes (min). Oligomycin A (Omy A) group: the Raw246.7 cells are incubated with Omy A (2×10^−5 mol/L) for 1 h and then incubated with the fluorescent probe (1×10^−5 mol/L) for 30 min. Omy A+ATP group: the Raw246.7 cells are incubated with Omy A (2×10^−5 mol/L) for 1 h to obtain incubated cells, the incubated cells are incubated with the ATP (1×10^−3 mol/L) for 1 h and then incubated with the fluorescent probe (1×10^−5 mol/L) for 30 min. N-acetylcysteine (NAC) group: the Raw246.7 cells are incubated with NAC (5×10^−4 mol/L) for 1 h and then incubated with the fluorescent probe (1×10^−5 mol/L) for 30 min. NAC+ClO^− group: the Raw246.7 cells are incubated with NAC (5×10^−4 mol/L) for 1 h to obtain incubated cells, the incubated cells are incubated with ClO^− (2×10^−4 mol/L) for 1 h and then incubated with the fluorescent probe (1×10^−5 mol/L) for 30 min.
After the Raw246.7 cells are incubated with relevant steps, the fluorescence imaging is performed by the Olympus FV500-IX70 laser confocal microscope, and results of the fluorescence imaging are shown in FIG. 7. Control group (Control): the Raw246.7 cells are incubated with the fluorescent probe (1×10^−5 mol/L) for 30 min, and a concentration of glucose (Glu) in a culture media is 5.5×10^−3 mol/L. Lipopolysaccharide (LPS) group: the Raw246.7 cells are incubated with LPS ([…]) for 1 h and then incubated with the fluorescent probe (1×10^−5 mol/L) for 30 min. No Glu group: the Raw246.7 cells are incubated with the fluorescent probe (1×10^−5 mol/L) for 30 min, and no Glu is added to the culture media. High Glu group: the Raw246.7 cells are incubated with the fluorescent probe (1×10^−5 mol/L) for 30 min, and the concentration of Glu in the culture media is 2.5×10^−2 mol/L. Acetaminophen (C8H9NO2, APAP) group: the Raw246.7 cells are incubated with […] for 1 h and then incubated with the fluorescent probe (1×10^−5 mol/L) for 30 min.

| Compound | fluorescence of the NIR channel (ClO^− level) versus control group | fluorescence of the yellow channel (ATP level) versus control group | detection of ClO^− in cells by the probe (Raw246.7 cells, probe 1×10^−5 mol/L 30 min, NIR channel, listed as fluorescent probe) | detection of ATP in cells by the probe (Raw246.7 cells, probe 1×10^−5 mol/L 30 min, yellow channel, listed as fluorescent probe) |
| --- | --- | --- | --- | --- |
| CC(=O)N[C@@H](CS)C(=O)O [NAC, N-acetylcysteine] | significantly weakened | significantly enhanced | – | – |
| Lipopolysaccharide [LPS] | significantly enhanced | significantly weakened | – | – |
| CCN(CC)c1ccc2c(c1)Oc1cc(N(CC)CC)ccc1C21c2ccccc2C(=O)N1CCN1CCN(C(=O)N2c3ccc(N(C)C)cc3Sc3cc(N(C)C)ccc32)CC1 | – | – | can detect exogenous ClO^− in cells; also recorded: can detect endogenous ClO^− | can detect exogenous ATP in cells; also recorded: can detect endogenous ATP |
| CC[C@@H]1/C=C/C=C/C[C@H](C)[C@H](O)[C@](C)(O)C(=O)[C@H](C)[C@@H](O)[C@H](C)C(=O)[C@H](C)[C@@H](O)[C@H](C)/C=C/C(=O)O[C@H]2[C@@H](C)[C@@H](CC1)O[C@@]1(CC[C@@H](C)[C@@H](C[C@H](C)O)O1)[C@@H]2C [Omy A, Oligomycin A] | significantly enhanced | significantly weakened | – | – |
| CC(=O)Nc1ccc(O)cc1 [APAP, Acetaminophen] | significantly enhanced | almost non-fluorescent | – | – |
